Laboratory results: US9932309B2, “2-oxo-3,4-dihydropyridine-5-carboxylates and their use” (UNIVERSITE DE LILLE 2 DROIT ET SANTE, priority 2014, dated 2018)

Tests used:
mTGR5 = target: T1, mTGR5 (Mus musculus, UniProt Q80SS6); test: TGR5/CRE Luciferase Assay (mTGR5); type: cell-based; settings: for EC50: HEK 293 cells co-transfected with pCMV AC6-TGR5m and pCRE TA-Luciferase, overnight incubation; for mTGR5 % trans: percentage of the 10 μM LCA value, HEK 293 cells transfected with mTGR5
T1 construct: expressed in transfected cells; host or cells: HEK293 cells, transiently co-transfected with the pCRE TA-Luciferase reporter
T1 sequence (Q80SS6 1-329): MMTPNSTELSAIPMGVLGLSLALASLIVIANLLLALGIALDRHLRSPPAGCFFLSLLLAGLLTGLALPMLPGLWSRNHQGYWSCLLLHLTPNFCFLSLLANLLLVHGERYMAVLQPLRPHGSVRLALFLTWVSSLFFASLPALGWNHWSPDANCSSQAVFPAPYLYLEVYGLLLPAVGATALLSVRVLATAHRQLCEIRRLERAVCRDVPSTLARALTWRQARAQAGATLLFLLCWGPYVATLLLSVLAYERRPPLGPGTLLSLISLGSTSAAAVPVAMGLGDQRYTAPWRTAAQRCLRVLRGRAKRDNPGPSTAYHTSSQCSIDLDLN
Summary of the method: (§1)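 Transiently co-transfected HEK293 cells expressing human or mouse TGR5 plus a CRE-luciferase reporter were incubated overnight with rising compound concentrations in duplicate. Luminescence reported cAMP-driven expression; 10 μM lithocholic acid served as positive reference. Curves fitted to a 4-parameter logistic.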

hTGR5 = target: T2, hTGR5 (Homo sapiens, UniProt Q8TDU6); test: TGR5/CRE Luciferase Assay (hTGR5); type: cell-based; settings: for EC50: HEK 293 cells co-transfected with pCMV tag4b-TGR5h and pCRE TA-Luciferase, overnight incubation; for hTGR5 % trans: percentage of the 10 μM LCA value, HEK 293 cells transfected with hTGR5
T2 construct: expressed in transfected cells; host or cells: HEK293 cells, transiently co-transfected with the pCRE TA-Luciferase reporter
T2 sequence (Q8TDU6 1-330): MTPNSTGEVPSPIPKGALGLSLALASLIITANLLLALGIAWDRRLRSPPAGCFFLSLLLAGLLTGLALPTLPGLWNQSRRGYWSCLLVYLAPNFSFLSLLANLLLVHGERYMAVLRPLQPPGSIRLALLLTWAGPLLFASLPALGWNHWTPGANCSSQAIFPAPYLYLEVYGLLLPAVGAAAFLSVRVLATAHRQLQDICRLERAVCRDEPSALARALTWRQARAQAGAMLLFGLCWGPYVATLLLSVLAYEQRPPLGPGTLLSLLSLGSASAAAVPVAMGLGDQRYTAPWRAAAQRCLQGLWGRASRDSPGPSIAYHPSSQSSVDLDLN
Summary of the method: as §1

## CC1=C(C(=O)OCc2ccc(OCCS(=O)(=O)O)cc2)[C@@H](c2ccc(Cl)nc2)CC(=O)N1C[C@@H]1CCCO1.N (racemic) [Example 153, Ammonium,2-[4-[[(4S)-4-(6-chloro-3-pyridyl)-6-methyl-2-oxo-1-[[(2R)-tetrahydrofuran-2-yl]methyl]-3,4-dihydropyridine-5-carbonyl]oxymethyl]phenoxy]ethanesulfonate and ammonium,2-[4-[[(4R)-4-(6-chloro-3-pyridyl)-6-methyl-2-oxo-1-[[(2S)-tetrahydrofuran-2-yl]methyl]-3,4-dihydropyridine-5-carbonyl]oxymethyl]phenoxy]ethanesulfonate]
mTGR5
  EC50: 130 nM
  mTGR5 % trans: 102%
hTGR5
  EC50: 130 nM
  hTGR5 % trans: 101%

## COCCC1=C(C(=O)OCc2ccccc2)C(c2ccc(Cl)cc2)CC(=O)N1 (stereo not drawn) [Compound 22, benzyl 4-(4-chlorophenyl)-6-(2-methoxyethyl)-2-oxo-3,4-dihydro-1H-pyridine-5-carboxylate]
mTGR5
  EC50: 4300 nM
  mTGR5 % trans: 44%
hTGR5
  EC50: 3510 nM
  hTGR5 % trans: 36%

## COCCN1C(=O)CC(c2ccc(Cl)cc2)C(C(=O)OCc2ccc(C#N)cc2)=C1C (stereo not drawn) [Example 95, (4-cyanophenyl)methyl 4-(4-chlorophenyl)-1-(2-methoxyethyl)-6-methyl-2-oxo-3,4-dihydropyridine-5-carboxylate]
mTGR5
  EC50: 300 nM
  mTGR5 % trans: 76%
hTGR5
  EC50: 200 nM
  hTGR5 % trans: 78%

## CC1=C(C(=O)OCc2ccccn2)[C@H](c2ccc(Cl)cc2)CC(=O)N1C[C@H]1CCCO1 (racemic) [Example 145, 2-pyridylmethyl (4S)-4-(4-chlorophenyl)-6-methyl-2-oxo-1-[[(2R)-tetrahydrofuran-2-yl]methyl]-3,4-dihydropyridine-5-carboxylate and 2-pyridylmethyl (4R)-4-(4-chlorophenyl)-6-methyl-2-oxo-1-[[(2S)-tetrahydrofuran-2-yl]methyl]-3,4-dihydropyridine-5-carboxylate]
mTGR5
  EC50: 2500 nM
  mTGR5 % trans: 74%
hTGR5
  EC50: 1000 nM
  hTGR5 % trans: 72%

## COCCN1C(=O)CC(c2ccc(Cl)cc2)C(C(=O)OCc2cccc(Cl)c2)=C1C (stereo not drawn) [Example 88, (3-chlorophenyl)methyl 4-(4-chlorophenyl)-1-(2-methoxyethyl)-6-methyl-2-oxo-3,4-dihydropyridine-5-carboxylate]
mTGR5
  EC50: 400 nM
  mTGR5 % trans: 91%
hTGR5
  EC50: 200 nM
  hTGR5 % trans: 75%

## COCCN1C(=O)CC(c2ccc(Cl)cc2Cl)C(C(=O)OCc2ccccc2OC)=C1C (stereo not drawn) [Example 129, (2-methoxyphenyl)methyl 4-(2,4-dichlorophenyl)-1-(2-methoxyethyl)-6-methyl-2-oxo-3,4-dihydropyridine-5-carboxylate]
mTGR5
  EC50: 900 nM
  mTGR5 % trans: 81%
hTGR5
  EC50: 400 nM
  hTGR5 % trans: 89%

## CC1=C(C(=O)OCc2ccccc2)C(c2ccc(F)cc2)CC(=O)N1 (stereo not drawn) [Compound 13, 4-(4-Fluoro-phenyl)-2-methyl-6-oxo-1,4,5,6-tetrahydro-pyridine-3-carboxylic acid benzyl ester]
mTGR5
  EC50: 4200 nM
  mTGR5 % trans: 37%
hTGR5
  EC50: 2600 nM
  hTGR5 % trans: 40%

## COc1ccccc1COC(=O)C1=C(C)N(CC2OCCO2)C(=O)CC1c1ccc(Cl)cc1 (stereo not drawn) [Compound 72, (2-methoxyphenyl)methyl 4-(4-chlorophenyl)-1-(1,3-dioxolan-2-ylmethyl)-6-methyl-2-oxo-3,4-dihydropyridine-5-carboxylate]
mTGR5
  EC50: 200 nM
  mTGR5 % trans: 92%
hTGR5
  EC50: 80 nM
  hTGR5 % trans: 99%

## COc1ccccc1[C@H](C)OC(=O)C1=C(C)N(C[C@H]2CCCO2)C(=O)C[C@H]1c1ccc(Cl)cc1 [Example 138, 1-(2-methoxyphenyl)ethyl (4S)-4-(4-chlorophenyl)-6-methyl-2-oxo-1-[[(2R)-tetrahydrofuran-2-yl]methyl]-3,4-dihydropyridine-5-carboxylate]
mTGR5
  EC50: 1110 nM
  mTGR5 % trans: 36%
hTGR5
  EC50: 380 nM
  hTGR5 % trans: 70%

## COc1ccccc1C1CC(=O)NC(C)=C1C(=O)OCc1ccccc1 (stereo not drawn) [Compound 4, 4-(2-Methoxy-phenyl)-2-methyl-6-oxo-1,4,5,6-tetrahydro-pyridine-3-carboxylic acid benzyl ester]
mTGR5
  EC50: 8500 nM
  mTGR5 % trans: 18%
hTGR5
  EC50: 10000 nM
  hTGR5 % trans: 17%

## CC1=C(C(=O)OCc2ccc(F)cc2Cl)C(c2ccc(Cl)cc2)CC(=O)N1C (stereo not drawn) [Example 81, (2-chloro-4-fluoro-phenyl)methyl 4-(4-chlorophenyl)-1,6-dimethyl-2-oxo-3,4-dihydropyridine-5-carboxylate]
mTGR5
  EC50: 1300 nM
  mTGR5 % trans: 62%
hTGR5
  EC50: 500 nM
  hTGR5 % trans: 86%

## COCCN1C(=O)CC(c2ccc(Cl)cc2)C(C(=O)OCc2ccc(OCCC[N+](C)(C)C)cc2)=C1C.[I-] (stereo not drawn) [Example 117, 3-[4-[[4-(4-chlorophenyl)-1-(2-methoxyethyl)-6-methyl-2-oxo-3,4-dihydropyridine-5-carbonyl]oxymethyl]phenoxy]propyl-trimethyl-ammonium; iodide]
mTGR5
  EC50: 4200 nM
  mTGR5 % trans: 77%
hTGR5
  EC50: 1600 nM
  hTGR5 % trans: 74%

## COCCN1C(=O)CC(c2ccc(Cl)cc2)C(C(=O)OCc2cccc(OC)c2)=C1C (stereo not drawn) [Example 103, (3-methoxyphenyl)methyl 4-(4-chlorophenyl)-1-(2-methoxyethyl)-6-methyl-2-oxo-3,4-dihydropyridine-5-carboxylate]
mTGR5
  EC50: 400 nM
  mTGR5 % trans: 95%
hTGR5
  EC50: 500 nM
  hTGR5 % trans: 85%

## CC1=C(C(=O)OCc2ccc(OCCCS(=O)(=O)O)cc2)[C@H](c2ccc(Cl)cc2)CC(=O)N1C[C@H]1CCCO1.N [Example 168, Ammonium,3-[4-[[(4S)-4-(4-chlorophenyl)-6-methyl-2-oxo-1-[[(2R)-tetrahydrofuran-2-yl]methyl]-3,4-dihydropyridine-5-carbonyl]oxymethyl]phenoxy]propane-1-sulfonate]
mTGR5
  EC50: 26 nM
  mTGR5 % trans: 120%
hTGR5
  EC50: 65 nM
  hTGR5 % trans: 106%

## COCCN1C(=O)CC(c2ccc(Cl)cc2)C(C(=O)OCc2ccccc2C(F)(F)F)=C1C (stereo not drawn) [Example 90, [2-(trifluoromethyl)phenyl]methyl 4-(4-chlorophenyl)-1-(2-methoxyethyl)-6-methyl-2-oxo-3,4-dihydropyridine-5-carboxylate]
mTGR5
  EC50: 1300 nM
  mTGR5 % trans: 34%
hTGR5
  EC50: 1100 nM
  hTGR5 % trans: 57%

## COc1cccc(C2CC(=O)NC(C)=C2C(=O)OCc2ccccc2)c1 (stereo not drawn) [Compound 5, 4-(3-Methoxy-phenyl)-2-methyl-6-oxo-1,4,5,6-tetrahydro-pyridine-3-carboxylic acid benzyl ester]
mTGR5
  EC50: 11100 nM
  mTGR5 % trans: 34%
hTGR5
  EC50: 10600 nM
  hTGR5 % trans: 31%

## COc1ccccc1COC(=O)C1=C(C)N(C[C@H]2CCCO2)C(=O)C[C@H]1c1ccc(C(F)(F)F)nc1 (racemic) [Example 150, (2-Methoxyphenyl)methyl (4S)-6-methyl-2-oxo-1-[[(2R)-tetrahydrofuran-2-yl]methyl]-4-[6-(trifluoromethyl)-3-pyridyl]-3,4-dihydropyridine-5-carboxylate and (2-methoxyphenyl)methyl (4R)-6-methyl-2-oxo-1-[[(2S)-tetrahydrofuran-2-yl]methyl]-4-[6-(trifluoromethyl)-3-pyridyl]-3,4-dihydropyridine-5-carboxylate]
mTGR5
  EC50: 100 nM
  mTGR5 % trans: 99%
hTGR5
  EC50: 25 nM
  hTGR5 % trans: 110%

## CC1=C(C(=O)OCc2ccccc2)C(c2ccc(Cl)cc2)CC(=O)N1Cc1nc(C)no1 (stereo not drawn) [Compound 59, Benzyl 4-(4-chlorophenyl)-6-methyl-1-[(3-methyl-1,2,4-oxadiazol-5-yl)methyl]-2-oxo-3,4-dihydropyridine-5-carboxylate]
mTGR5
  EC50: 12400 nM
  mTGR5 % trans: 18%
hTGR5
  EC50: 1100 nM
  hTGR5 % trans: 21%

## CC1=C(C(=O)OCc2ccccc2)C(c2ccccc2C(F)(F)F)CC(=O)N1 (stereo not drawn) [Compound 7, 2-Methyl-6-oxo-4-(2-trifluoromethyl-phenyl)-1,4,5,6-tetrahydro-pyridine-3-carboxylic acid benzyl ester]
mTGR5
  mTGR5 % trans: 14%
hTGR5
  EC50: 5000 nM
  hTGR5 % trans: 22%
